From publication PMC8143347, “Metabolism and Interspecies Variation of IMMH-010, a Programmed Cell Death Ligand 1 Inhibitor Prodrug” (Pharmaceutics, 2021)

Legend:
[1] = Identification of IMMH-010 metabolites in rat urine, bile and feces; assay type: in vivo; conditions: after oral IMMH-010 maleate 5 mg/kg
Experimental: After oral administration of IMMH-010 maleate (5 mg/kg), two rats were housed in metabolic cages to collect urine and feces samples for 24 h. Feces samples were homogenized with methanol at 1:10 (w/v) and urine samples were diluted 10-fold in methanol. Additionally, two rats were bile duct cannulated under isoflurane anesthesia. After oral administration of IMMH-010 maleate (5 mg/kg), bile samples were collected over 0–2 h after dosing.
LC-MS was performed using a Thermo Scientific Q Exactive HF hybrid quadrupole-Orbitrap mass spectrometer. Reverse-phase liquid chromatography was performed on a Zorbax C18 column (100 × 2.1 mm, 3.5 μm). Mobile phase A was 0.1% aqueous formic acid and mobile phase B was 0.1% formic acid in methanol. The mobile phase was delivered with the following gradient elution profile: 0 min, 10% B; 15 min, 40% B; 17–19 min, 100% B; 20–23 min, 10% B. The total runtime for each injection was 23 min. The flow rate was 0.3 mL/min, and the column oven was maintained at 30 °C.
The analysis was performed in full mass spectrometry with data-dependent tandem mass spectrometry (MS/dd-MS^2) mode. For a full mass spectrometry scan, the selected scan range was from m/z 100 to 500, the resolution was 70,000, and the automatic gain control (AGC) target was set to 1.0 × 10^6 with a maximum injection time (IT) of 100 ms. For the dd-MS^2 scan, the fragmentation mass spectra were recorded at a mass resolving power of 17,500 fwhm with a quadrupole isolation window of 1.5 m/z for precursor ions. The AGC target was 2.0 × 10^5 and the maximum IT was 50 ms.
Xcalibur 4.1 software (Thermo Fisher Scientific, San Jose, CA, USA) was used for instrument control and data processing. Compound Discover 2.0 software was used for metabolite identification.

[2] = Plasma and tumor PK in B16F10 melanoma xenograft mice; assay type: in vivo, mouse
Experimental: (§1) After the final dose, tumor and blood samples treated with IMMH-010 maleate (5 mg/kg) were collected over 72 h. Blood was exposed in an EP tube containing 500 mM NaF and 0.5% heparin sodium. Plasma samples were obtained by centrifugation, and tumor tissues were homogenized with 3 volumes (w/v) of saline on ice. The concentration of IMMH-010 and YPD-29B in plasma and tumor samples was quantitated by an LC-MS/MS method.
(§2) LC-MS/MS was performed using a triple quadrupole mass spectrometer (API 4000, AB Sciex, Framingham, MA, USA) with an ultra-performance liquid chromatography system (LC-30A, Shimadzu, Kyoto, Japan). Analyst 1.6.2 software (AB Sciex) was used for data acquisition and analysis. Mobile phase A was 1 mM ammonium acetate and mobile phase B was methanol. The mobile phase was delivered with the following gradient elution profile: 0–2.8 min, 70% B; 2.9 min, 85% B; 3 min, 90% B; 3.1–6.8 min, 100% B; 6.9–12 min, 70% B. The flow rate was 0.3 mL/min, and the column oven was maintained at 35 °C. The specific transitions monitored were 641.3 → 494.2 for IMMH-010, 597 → 155 for YPD-29B, 512 → 247 for M3, and 524 → 246 for M4.
(§3) All statistics were calculated using GraphPad Prism 8.0 software (San Diego, CA, USA) designed for one-way ANOVA. Pharmacokinetic parameters were calculated with a non-compartmental analysis using WinNonlin Version 6.3 (Pharsight, Mountain View, CA, USA). ADMET predictor V10.0 (Simulations Plus, Inc., Lancaster, CA, USA) and Microsoft Excel (Microsoft, Redmond, WA, USA) were used to process the data (i.e., half-life (t1/2) and hepatic clearance (CLhep) determination). Data were expressed as means ± standard deviations (SD). Results were considered statistically significant if the p-value <0.05, <0.01 and <0.001.

[3] = Plasma and tumor PK in MC38 colon cancer xenograft mice; assay type: in vivo, mouse
Experimental: as §1, §2, §3

[4] = PK study in male cynomolgus monkeys; assay type: in vivo, cynomolgus monkey; conditions: single oral IMMH-010 maleate 5 mg/kg
Experimental: IMMH-010 maleate was suspended with 0.5% carboxymethyl cellulose to make a 1 mg/mL suspension for PO gavage. Four male cynomolgus monkeys received a single oral dose of IMMH-010 maleate (5 mg/kg). Serial blood samples were collected upto 48 h. The plasma was separated and the plasma concentrations of IMMH-010 and YPD-29B were determined by LC-MS/MS.
as §2, §3

[5] = Metabolism in human liver microsomes; assay type: in vitro ADME; conditions: NADPH-dependent
Experimental: (§4) To compare the differences in IMMH-010 metabolism between the liver and intestine, IMMH-010 (10 μM) was incubated with rat liver and intestinal S9 homogenate protein (1 mg protein/mL) and with human liver and intestinal microsomes (0.2 mg protein/mL) in a final volume of 0.2 mL Tris-HCl buffer (50 mM, pH 7.4) containing 5 mM MgCl2. The incubations were performed in duplicate in the presence and absence of an NADPH regenerating system. After 2 min preincubation at 37 °C, reactions were initiated by the addition of IMMH-010 (10 μM). Incubations were terminated by acetonitrile at 0, 10, and 20 min. IMMH-010, YPD-29B, M2, and M3 were quantified by LC-MS/MS assay. Midazolam (10 μM, a substrate of CYP3A4) was set as the positive control.

[6] = Metabolism in human intestinal microsomes; assay type: in vitro ADME; conditions: NADPH-dependent
Experimental: as §4

[7] = test system: cDNA-expressed human CYPs and FMOs; test: IMMH-010 metabolism by cDNA-expressed human CYPs and FMOs; assay type: in vitro ADME; conditions: IMMH-010 10 µM, 50 pmol enzyme, 30 min, NADPH
Experimental: cDNA-expressed human CYPs were also used to investigate the enzymes mediating IMMH-010 metabolism. IMMH-010 (10 µM) was incubated individually with 50 pmol of 10 individual cDNA-expressed human CYPs (CYP1A1, CYP1A2, CYP2A6, CYP2B6, CYP2C9, CYP2C19, CYP2D6, CYP2E1, CYP2J2, or CYP3A4) and three cDNA-expressed human FMO enzymes (FMO1, FMO3, and FMO5) at 37 °C for 30 min. An NADPH regeneration system was added to initiate the reactions. Probe substrates of the CYPs were used as the positive controls. Incubations without NADPH served as the negative controls. All reactions were carried out in a final volume of 0.2 mL Tris-HCl buffer (50 mM, pH 7.4) containing 5 mM MgCl2 and conducted in triplicate. All incubations were terminated by 2 volumes of acetonitrile. After centrifugation at 14,000 rpm for 5 min, the samples were analyzed by LC-MS/MS.

B16F10 melanoma = test: Antitumor activity in B16F10 melanoma xenograft model; assay type: in vivo, mouse; conditions: B16F10, CTX 80 mg/kg weekly, day 19
Experimental: (§5) The antitumor activity of IMMH-010 was evaluated by B16F10 melanoma and MC38 colon carcinoma xenograft models. The B16F10 and MC38 cells were resuspended in saline (1.5 × 10^6 cells/0.2 mL saline) and injected subcutaneously into the right flanks of each mouse on day 0. The treated mice received once-daily oral administration of IMMH-010 maleate (1.25, 2.5, 5, and 10 mg/kg, n = 10) by oral gavage (PO) for 19 consecutive days, whereas the control mice received vehicle (0.5% carboxymethyl cellulose, n = 10). The mice in the positive control group received the anti-mouse PD-L1 antibody (696618M2, Bio X Cell, West Lebanon, NH, USA) at 10 mg/kg intraperitoneally every 3 days (n = 10). The first-line antineoplastic drug cyclophosphamide (CTX) was administered at doses of 80 and 40 mg/kg weekly in the B16F10 and MC38 models (n = 10), respectively. After the last treatment, on day 19, the mice were sacrificed, and the tumor and spleen were stripped and weighed. The tumor growth inhibition (TGI) was calculated as TGI = (1 − treatment group tumor weight/vehicle group tumor weight) × 100.

MC38 colon carcinoma = test: Antitumor activity in MC38 colon carcinoma xenograft model; assay type: in vivo, mouse; conditions: MC38, CTX 40 mg/kg weekly, day 19
Experimental: as §5

[8] = Body weight in B16F10 model; conditions: B16F10, CTX 80 mg/kg weekly
Experimental: as §5

[9] = Body weight in MC38 model; conditions: MC38, CTX 40 mg/kg weekly
Experimental: as §5

[10] = Metabolism in human liver S9 fractions; assay type: in vitro ADME; conditions: human, monkey, dog and rat liver S9 incubations of IMMH-010 10 μM
Experimental: IMMH-010 metabolism was compared in human, monkey, dog, and rat liver S9 homogenates. IMMH-010 (10 μM) was incubated with liver S9 homogenate protein (0.5 mg protein/mL) and a reduced nicotinamide adenine dinucleotide phosphate (NADPH) regenerating system in a final volume of 0.2 mL Tris-HCl buffer (50 mM, pH 7.4) containing 5 mM MgCl2. The reactions were performed in triplicate. After 2 min of preincubation at 37 °C, reactions were initiated by the addition of IMMH-010 (10 μM). The samples were collected 0, 5, 10, and 20 min after incubation, 2 volumes of acetonitrile were added to terminate the reaction. After vortexing and centrifugation, IMMH-010, YPD-29B, M3, and M4 in the supernatant were analyzed by LC-MS/MS.
as §3

SMILES: O=C(O)[C@H](CO)NCc1cc(Cl)c(OCc2cccc(-c3ccccc3)c2Br)cc1OCc1cccnc1 [YPD-29B]
- metabolite in rat feces and bile [1]: detected
- metabolite in rat urine ([1]; 24 h urine): found
- area under the plasma concentration versus time curve (AUC) ([2]; B16F10 mice, IMMH-010 maleate 5 mg/kg PO): ~69.9 ng·h/mL
- half-life ([2]; C57BL/6, mouse, plasma, B16F10 mice, IMMH-010 maleate 5 mg/kg PO, read-out: elimination half-life (t1/2β) in plasma (converted)): 96.6 min
- Tmax ([2]; C57BL/6, mouse, plasma, B16F10 mice, IMMH-010 maleate 5 mg/kg PO, read-out: mean time of peak plasma concentration (converted)): 15 min
- Cmax ([2]; C57BL/6, mouse, plasma, B16F10 mice, after last oral dose of IMMH-010 maleate 5 mg/kg for 19 days, read-out: mean peak concentration (Cmax) in plasma): 42.6 ng/mL
- Kp ([2]; C57BL/6, mouse, tumor and plasma, B16F10 mice, IMMH-010 maleate 5 mg/kg PO, read-out: tissue/plasma ratio (AUCtumor/AUCplasma)): 2.1
- half-life ([2]; C57BL/6, mouse, tumor, B16F10 mice, IMMH-010 maleate 5 mg/kg PO, read-out: t1/2β in tumor (converted)): 742 min
- Tmax ([2]; C57BL/6, mouse, tumor, B16F10 mice, IMMH-010 maleate 5 mg/kg PO, read-out: time of maximum concentration in the tumor): 15 to 60 min
- t1/2β in tumors relative to plasma ([2]; range over B16F10 and MC38 xenograft mice): 7.6–25 times
- half-life ([3]; C57BL/6, mouse, plasma, IMMH-010 maleate 5 mg/kg PO, read-out: elimination half-life (t1/2β) in plasma (converted)): 106 min
- Tmax ([3]; C57BL/6, mouse, plasma, IMMH-010 maleate 5 mg/kg PO, read-out: mean time of peak plasma concentration (converted)): 15 min
- Cmax ([3]; C57BL/6, mouse, plasma, after last oral dose of IMMH-010 maleate 5 mg/kg for 19 days, read-out: mean peak concentration (Cmax) in plasma): 64.4 ng/mL
- Kp ([3]; C57BL/6, mouse, tumor and plasma, IMMH-010 maleate 5 mg/kg PO, read-out: tissue/plasma ratio (AUCtumor/AUCplasma)): 2.4
- half-life ([3]; C57BL/6, mouse, tumor, IMMH-010 maleate 5 mg/kg PO, read-out: t1/2β in tumor (converted)): 2700 min
- Tmax ([3]; C57BL/6, mouse, tumor, IMMH-010 maleate 5 mg/kg PO, read-out: time of maximum concentration in the tumor): 15 to 60 min
- area under the plasma concentration versus time curve (AUC) ([3]; IMMH-010 maleate 5 mg/kg PO): ~69.9 ng·h/mL
- AUC ([4]; cynomolgus monkey, plasma): 186 ng·h/mL
- Cmax ([4]; cynomolgus monkey, plasma): 35.5 ng/mL
- half-life ([4]; cynomolgus monkey, plasma, read-out: mean t1/2β in plasma (converted)): 540 min
- Tmax ([4]; cynomolgus monkey, plasma, read-out: observed time to peak concentration): ≤ 1.5 h
- molar AUC ratio of YPD-29B to IMMH-010 [4]: 4.17

SMILES: O=Cc1cc(Cl)c(OCc2cccc(-c3ccccc3)c2Br)cc1OCc1cccnc1 [M2]
- transformation ratio of IMMH-010 to this metabolite [5]: < 2%
- transformation ratio of IMMH-010 to this metabolite [6]: < 2%
- enzyme with the highest metabolic activity for formation of the metabolite [7]: CYP2D6
- metabolite in rat feces and bile [1]: detected

SMILES: O=P1(N(CCCl)CCCl)NCCCO1 (stereo not shown) [CTX, cyclophosphamide, reference compound]
- Tumor Weight (g) X ± SD (B16F10 melanoma): 0.23 ± 0.18 g
- Tumor Weight TGI (%) (B16F10 melanoma): 90%
- Tumor Weight (g) X ± SD (MC38 colon carcinoma): 0.17 ± 0.10 g
- Tumor Weight TGI (%) (MC38 colon carcinoma): 90%
- Body Weight (g) X ± SD Finish ([8]; finish day 19): 19.2 ± 0.8 g
- Body Weight (g) X ± SD Start ([8]; start): 16.94 ± 0.43 g
- Body Weight (g) X ± SD Finish ([9]; finish day 19): 24.5 ± 0.9 g
- Body Weight (g) X ± SD Start ([9]; start): 22.0 ± 0.8 g

SMILES: O=C(O)c1cc(Cl)c(OCc2cccc(-c3ccccc3)c2Br)cc1OCc1cccnc1 [M4]
- amount of minor metabolite formed [10]: < 3%
- formation of the metabolite in CYP and FMO incubations [7]: not detected
- metabolite in rat feces and bile [1]: detected
